Reference: patent US20060115815A1 (priority 2002, published 2006)
Like-named read-outs stand apart in the source and are kept apart here.

Tests used:
[1] = test system: mutant HIV-1 with I84V/L90M mutations in the protease gene; assay type: cell-based
[2] = target: recombinant HIV-1 protease (Human immunodeficiency virus type 1 group M subtype B, UniProt P04585); assay: biochemical; assay type: biochemical
[3] = test system: wild-type HIV-1 strain IIIB; assay: microbe, parasite or virus in culture; assay type: cell-based; settings: read-out: EC50
[4] = fold difference in EC50, mutant vs. wild type
[5] = Ki (pM), class symbols, Table 10

Compound: CCOP(=O)(CN1CC=C(CC(NC(=O)OC2COC3OCCC23)C(O)CN(CC(C)C)S(=O)(=O)c2ccc(OC)cc2)CC1)OCC (stereo not drawn)
- I84V/L90M fold change [1, 4]: + (>3 to ≦10)

Compound: COc1ccc(S(=O)(=O)N(CC(C)C)CC(O)C(CC2=CCN(CP(=O)(O)OC(C)C(=O)O)CC2)NC(=O)OC2COC3OCCC23)cc1 (stereo not drawn)
- Ki ([2]; read-out: Ki): > 1000 pM

Compound: COc1ccc(S(=O)(=O)N(CC(C)C)CC(O)C(CC2=CCN(CCP(=O)(OCc3ccccc3)OCc3ccccc3)CC2)NC(=O)OC2COC3OCCC23)cc1 (stereo not drawn)
- I84V/L90M fold change [1, 4]: + (>3 to ≦10)

Compound: CCOP(=O)(CCC1=CCN(CC(NC(=O)OC2COC3OCCC23)C(O)CN(CC(C)C)S(=O)(=O)c2ccc(OC)cc2)CC1)OCC (stereo not drawn)
- I84V/L90M fold change [1, 4]: + (>3 to ≦10)
- EC50 [3]: < 50 nM

Compound: COc1ccc(S(=O)(=O)N(CC(C)C)CC(O)C(CNc2ccc(CP(=O)(O)O)cc2)NC(=O)OC2COC3OCCC23)cc1 (stereo not drawn)
- I84V/L90M fold change [1, 4]: + (>3 to ≦10)

Compound: CCOP(=O)(Cc1ccc(NCC(NC(=O)OC2COC3OCCC23)C(O)CN(CC(C)C)S(=O)(=O)c2ccc(OC)cc2)cc1)OCC (stereo not drawn)
- I84V/L90M fold change [1, 4]: + (>3 to ≦10)

Compound: CCOP(=O)(Cc1ccc(N(C)CC(NC(=O)OC2COC3OCCC23)C(O)CN(CC(C)C)S(=O)(=O)c2ccc(OC)cc2)cc1)OCC (stereo not drawn)
- I84V/L90M fold change [1, 4]: + (>3 to ≦10)

Compound: CCOC(=O)C(C)OP(=O)(Oc1ccccc1)c1ccc(CN(C)CC(NC(=O)OC2COC3OCCC23)C(O)CN(CC(C)C)S(=O)(=O)c2ccc(OC)cc2)cc1 (stereo not drawn)
- I84V/L90M fold change [1, 4]: + (>3 to ≦10)
- EC50 [3]: < 50 nM

Compound: COc1ccc(S(=O)(=O)N(CC(C)C)CC(O)C(CN(C)Cc2ccc(P(=O)(O)OC(C)C(=O)O)cc2)NC(=O)OC2COC3OCCC23)cc1 (stereo not drawn)
- Ki ([2]; read-out: Ki): > 1000 pM

Compound: CCOP(=O)(Cc1ccc2c(c1)CCN(CC(NC(=O)OC1COC3OCCC13)C(O)CN(CC(C)C)S(=O)(=O)c1ccc(OC)cc1)C2)OCC (stereo not drawn)
- I84V/L90M fold change [1, 4]: + (>3 to ≦10)

Compound: CCOC(=O)C(C)OP(=O)(Cc1ccc2c(c1)CCN(C[C@H](NC(=O)O[C@H]1CO[C@H]3OCC[C@H]31)[C@H](O)CN(CC(C)C)S(=O)(=O)c1ccc(OC)cc1)C2)Oc1ccccc1 (stereo partly drawn)
- I84V/L90M fold change [1, 4]: + (>3 to ≦10)
- EC50 [3]: 50 to 500 nM

Compound: CCOC(=O)C(C)OP(=O)(COc1ccc2c(c1)CCN(CC(NC(=O)OC1COC3OCCC13)C(O)CN(CC(C)C)S(=O)(=O)c1ccc(OC)cc1)C2)Oc1ccccc1 (stereo not drawn)
- I84V/L90M fold change [1, 4]: + (>3 to ≦10)

Compound: COc1ccc(S(=O)(=O)N(CC(C)C)C[C@@H](O)[C@H](CN2CCc3cc(OCP(=O)(O)OC(C)C(=O)O)ccc3C2)NC(=O)O[C@H]2CO[C@H]3OCC[C@H]32)cc1 (stereo partly drawn)
- Ki ([2]; read-out: Ki): 100 to 1000 pM

Compound: COc1ccc(S(=O)(=O)N(CC(C)C)CC(O)C(Cc2ccc(C)cc2)NC(=O)OC2COC3OCCC23)cc1 (stereo not drawn)
- I84V/L90M fold change ([1]; I84V/L90M mutant): + (>3 to ≦10)
- EC50 [3]: < 50 nM

Compound: COc1ccc(S(=O)(=O)N(CC(C)C)CC(O)C(Cc2ccc(O)cc2)NC(=O)OC2COC3OCCC23)cc1 (stereo not drawn)
- I84V/L90M fold change ([1]; I84V/L90M mutant): — (≦3)
- EC50 [3]: < 50 nM

Compound: COc1ccc(S(=O)(=O)N(CCN(C)C)CC(O)C(Cc2ccc(OCc3ccccc3)cc2)NC(=O)OC2COC3OCCC23)cc1 (stereo not drawn)
- I84V/L90M fold change ([1]; I84V/L90M mutant): — (≦3)

Compound: COc1ccc(S(=O)(=O)N(CCN2CCOCC2)CC(O)C(Cc2ccc(OCP(=O)(O)O)cc2)NC(=O)OC2COC3OCCC23)cc1 (stereo not drawn)
- I84V/L90M fold change ([1]; I84V/L90M mutant): + (>3 to ≦10)

Compound: COc1ccc(S(=O)(=O)N(CCN2CCOCC2)CC(O)C(Cc2ccc(OCP(=O)(OCc3ccccc3)OCc3ccccc3)cc2)NC(=O)OC2COC3OCCC23)cc1 (stereo not drawn)
- I84V/L90M fold change ([1]; I84V/L90M mutant): + (>3 to ≦10)

Compound: COc1ccc(S(=O)(=O)N(Cc2ccccc2)CC(O)C(Cc2ccccc2)NC(=O)OC2COC3OCCC23)cc1 (stereo not drawn)
- I84V/L90M fold change ([1]; I84V/L90M mutant): +++ (>30)

Compound: COc1ccc(S(=O)(=O)N(CC(O)C(Cc2ccccc2)NC(=O)OC2COC3OCCC23)CC(C)(C)CO)cc1 (stereo not drawn)
- I84V/L90M fold change ([1]; I84V/L90M mutant): +++ (>30)

Compound: COc1ccc(S(=O)(=O)N(C[C@@H](O)[C@H](Cc2ccccc2)NC(=O)O[C@H]2CO[C@H]3OCC[C@H]32)CC(C)(C)COCP(=O)(O)O)cc1
- I84V/L90M fold change ([1]; I84V/L90M mutant): +++ (>30)
- EC50 [3]: 500 to 5000 nM

Compound: Cc1cccc(C)c1OCC(=O)NC(Cc1ccc(OCP(=O)(O)O)cc1)C(O)CN(CC(C)C)S(=O)(=O)c1ccc(N)cc1 (stereo not drawn)
- I84V/L90M fold change ([1]; I84V/L90M mutant): + (>3 to ≦10)

Compound: Cc1ccc(C(=O)NC(Cc2ccc(OCP(=O)(O)O)cc2)C(O)CN(CC(C)C)S(=O)(=O)c2ccc(N)cc2)cc1O (stereo not drawn)
- I84V/L90M fold change ([1]; I84V/L90M mutant): + (>3 to ≦10)

Compound: Cc1ccc(C(=O)N[C@@H](Cc2ccc(OCP(=O)(OCc3ccccc3)OCc3ccccc3)cc2)[C@H](O)CN(CC(C)C)S(=O)(=O)c2ccc(N)cc2)cc1O
- I84V/L90M fold change ([1]; I84V/L90M mutant): + (>3 to ≦10)
- EC50 [3]: 50 to 500 nM

Compound: CCOC(=O)C(C)OP(=O)(COc1ccc(C[C@H](NC(=O)O[C@H]2CO[C@H]3OCC[C@H]32)[C@H](O)CN(CC(C)C)S(=O)(=O)c2ccccc2)cc1)Oc1ccccc1 (stereo partly drawn)
- I84V/L90M fold change ([1]; I84V/L90M mutant): + (>3 to ≦10)
- EC50 [3]: < 50 nM

Compound: CC(C)CN(CC(O)C(Cc1ccc(OCP(=O)(OCc2ccccc2)OCc2ccccc2)cc1)NC(=O)OC1COC2OCCC12)S(=O)(=O)c1ccc(F)cc1 (stereo not drawn)
- I84V/L90M fold change ([1]; I84V/L90M mutant): + (>3 to ≦10)

Compound: CCOC(=O)C(C)OP(=O)(COc1ccc(C[C@H](NC(=O)O[C@H]2CO[C@H]3OCC[C@H]32)[C@H](O)CN(CC(C)C)S(=O)(=O)c2ccc(F)cc2)cc1)Oc1ccccc1 (stereo partly drawn)
- I84V/L90M fold change ([1]; I84V/L90M mutant): + (>3 to ≦10)
- EC50 [3]: < 50 nM

Compound: CC(C)CN(C[C@@H](O)[C@H](Cc1ccc(OCP(=O)(OCc2ccccc2)OC(C)C(=O)OCc2ccccc2)cc1)NC(=O)O[C@H]1CO[C@H]2OCC[C@H]21)S(=O)(=O)c1ccc(F)cc1 (stereo partly drawn)
- I84V/L90M fold change ([1]; I84V/L90M mutant): + (>3 to ≦10)
- EC50 [3]: 50 to 500 nM

Compound: CC(C)CN(CC(O)C(Cc1ccc(OCP(=O)(OCc2ccccc2)OCc2ccccc2)cc1)NC(=O)OC1COC2OCCC12)S(=O)(=O)c1ccc(OC(F)(F)F)cc1 (stereo not drawn)
- I84V/L90M fold change ([1]; I84V/L90M mutant): + (>3 to ≦10)

Compound: CC(C)CN(CC(O)C(Cc1ccc(OCP(=O)(O)OC(C)C(=O)O)cc1)NC(=O)OC1COC2OCCC12)S(=O)(=O)c1ccc(CO)cc1 (stereo not drawn)
- Ki ([2]; read-out: Ki): 10 to 100 pM

Compound: CC(C)CN(CC(O)C(Cc1ccc(OCP(=O)(O)OC(C)C(=O)O)cc1)NC(=O)OC1COC2OCCC12)S(=O)(=O)c1ccc(CN2CCOCC2)cc1 (stereo not drawn)
- Ki ([2]; read-out: Ki): > 1000 pM

Compound: CC(C)CN(CC(O)C(Cc1ccccc1)NC(=O)OC1COC2OCCC12)S(=O)(=O)c1ccc(OCP(=O)(O)Oc2ccccc2)cc1 (stereo not drawn)
- Ki ([2]; Ki): 10 to 100 pM

Compound: CC(C)CN(CC(O)C(Cc1ccccc1)NC(=O)OC1COC2OCCC12)S(=O)(=O)c1ccc(OCP(=O)(OCc2ccccc2)OCc2ccccc2)cc1 (stereo not drawn)
- I84V/L90M fold change ([1]; I84V/L90M mutant): +++ (>30)

Compound: CC(C)CN(CC(O)C(Cc1ccccc1)NC(=O)OC1COC2OCCC12)S(=O)(=O)c1cccc(O)c1 (stereo not drawn)
- I84V/L90M fold change ([1]; I84V/L90M mutant): + (>3 to ≦10)

Compound: CC(C)CN(CC(O)C(Cc1ccccc1)NC(=O)OC1COC2OCCC12)S(=O)(=O)c1cccc(OCP(=O)(O)O)c1 (stereo not drawn)
- I84V/L90M fold change ([1]; I84V/L90M mutant): + (>3 to ≦10)

Compound: CCOP(=O)(COc1cc(S(=O)(=O)N(CC(C)C)CC(O)C(Cc2ccccc2)NC(=O)OC2COC3OCCC23)ccc1OC)OCC (stereo not drawn)
- I84V/L90M fold change ([1]; I84V/L90M mutant): + (>3 to ≦10)

Compound: CCOP(=O)(CCn1nc(O)c2cc(CN3C(=O)N(Cc4ccccc4)[C@H](Cc4ccccc4)[C@H](O)[C@@H](O)[C@H]3Cc3ccccc3)ccc21)OCC
- IC50 ([2]; read-out: Enzymatic assay WT IC50/nM): 109 nM

Compound: COC(=O)N[C@H](C(=O)N[C@@H](Cc1ccccc1)[C@@H](O)CN(Cc1ccc(-c2ccccn2)cc1)NC(=O)[C@@H](NC(=O)OC)C(C)(C)C)C(C)(C)C [Atazanavir, reference compound]
- I84V/L90M fold change [1, 4]: +++ (>30)

Compound: CC(C)CN(C[C@@H](O)[C@H](Cc1ccc(OCP(=O)(Oc2ccccc2)Oc2ccccc2)cc1)NC(=O)OC1CCOC1)S(=O)(=O)c1ccc(N)cc1 (stereo partly drawn) [NH2, phenol]
- I84V/L90M fold change ([1]; I84V/L90M mutant): — (≦3)

Compound: COc1ccc(S(=O)(=O)N(CC(C)C)C[C@@H](O)[C@H](Cc2ccc(OCP(=O)(O)O)cc2)NC(=O)OC2CCOC2)cc1 (stereo partly drawn) [OMe, OH]
- I84V/L90M fold change ([1]; I84V/L90M mutant): +++ (>30)

Compound: COc1ccc(S(=O)(=O)N(CC(C)C)C[C@@H](O)[C@H](Cc2ccc(OCP(=O)(Oc3ccccc3)Oc3ccccc3)cc2)NC(=O)OC2CCOC2)cc1 (stereo partly drawn) [OMe, phenol]
- I84V/L90M fold change ([1]; I84V/L90M mutant): + (>3 to ≦10)

Compound: CCCCOC(=O)C(CC)NP(=O)(COc1ccc(CC(NC(=O)OC2COC3OCCC23)C(O)CN(CC(C)C)S(=O)(=O)c2ccc(OC)cc2)cc1)NC(CC)C(=O)OCCCC (stereo not drawn) [drawing 655 R1=Aba-Bu R2=Aba-Bu]
- I84V/L90M fold change [1, 4]: + (>3 to ≦10)

Compound: CCCCOC(=O)C(CC(C)C)NP(=O)(COc1ccc(CC(NC(=O)OC2COC3OCCC23)C(O)CN(CC(C)C)S(=O)(=O)c2ccc(OC)cc2)cc1)NC(CC(C)C)C(=O)OCCCC (stereo not drawn) [drawing 655 R1=Leu-Bu R2=Leu-Bu]
- I84V/L90M fold change [1, 4]: + (>3 to ≦10)

Compound: COC(=O)C(C)OP(=O)(COc1ccc(CC(NC(=O)OC2COC3OCCC23)C(O)CN(CC(C)C)S(=O)(=O)c2ccc(OC)cc2)cc1)Oc1ccccc1 [drawing 658 R1=OPh R2=(R)Lac-Me]
- Ki [2, 5]: < 10 pM

Compound: CC[C@H](OP(=O)(O)COc1ccc(C[C@H](NC(=O)O[C@H]2CO[C@H]3OCC[C@H]32)[C@H](O)CN(CC(C)C)S(=O)(=O)c2ccc(OC)cc2)cc1)C(=O)O [drawing 659 R1=OH R2=(S)Hba-OH]
- Ki ([2]; read-out: Ki): 10 to 100 pM

Compound: COc1ccc(S(=O)(=O)N(CC(C)C)CC(O)C(Cc2ccc(NCP(=O)(NC(C)C(=O)OC(C)C)Oc3ccccc3)cc2)NC(=O)OC2COC3OCCC23)cc1 (stereo not drawn) [drawing 704]
- Ki [2, 5]: 10 to 100 pM

Compound: COc1ccc(S(=O)(=O)N(CC(C)C)CC(O)C(Cc2ccc(NCP(=O)(NC(C)C(=O)OC(C)C)Oc3ccccc3)cc2)NC(=O)OC2COC3OCCC23)cc1 (stereo not drawn) [drawing 705]
- Ki [2, 5]: < 10 pM
